Assay: Metabolic stability in human liver S9 fractions
Format: in vitro ADME
Conditions: for % Δ of % parent remaining (relative to S): relative to Pagoclone (S); for % Δ of % parent remaining (relative to racemic): relative to Pagoclone (racemic)
Protocol: Materials: Human liver S9 (20 mg/mL) were obtained from Xenotech, LLC (Lenexa, Kans.). (3-nicotinamide adenine dinucleotide phosphate, reduced form (NADPH), magnesium chloride (MgCl2), and dimethyl sulfoxide (DMSO) were purchased from Sigma-Aldrich.
Determination of Metabolic Stability: 10 mM stock solutions of test compounds were prepared in DMSO. The 10 mM stock solutions were diluted to 0.1 mM or 1.0 mM in acetonitrile (ACN). The 20 mg/mL human liver […] were diluted to 2.5 mg/mL in 0.1 M potassium phosphate buffer, pH 7.4, containing 3 mM MgCl2 and incubated with alamethicin at 10 μg/mL for 15 minutes on ice. The diluted S9 were added to wells of a 96-well deep-well polypropylene plate in triplicate. 15 μL of the 0.1 mM or 1.0 mM test compound was added to the S9 and the mixture was pre-warmed for 10 minutes. Reactions were initiated by addition of pre-warmed NADPH solution. […] The reaction mixtures were incubated at 37° C., and 50 μL aliquots were removed at 0 and 60 minutes and added to shallow-well 96-well plates which contained 50 μL of ice-cold ACN with internal standard to stop the reactions. The plates were stored at 4° C. for 20 minutes after which 100 μL of water was added to the wells of the plate before centrifugation to pellet precipitated proteins. Supernatants were transferred to another 96-well plate and analyzed for amounts of parent remaining by LC-MS/MS using an Applied Bio-systems API 4000 mass spectrometer.
Data analysis: The in vitro tu2s for test compounds were calculated from the slopes of the linear regression of % parent remaining (1n) vs incubation time relationship.
k=−[slope of linear regression of % parent remaining(ln) vs incubation time]
Data analysis was performed using Microsoft Excel Software.

[1] = human liver S9 fractions, 1 μM tested compound
[2] = human liver S9 fractions, 10 μM tested compound

SMILES	% Parent remaining at 1 hr [1]	% Parent remaining at 1 hr [2]	% Δ of % parent remaining (relative to S) (1 μM tested compound)	% Δ of % parent remaining (relative to racemic) (1 μM tested compound)	% Δ of % parent remaining (relative to S) (10 μM tested compound)	% Δ of % parent remaining (relative to racemic) (10 μM tested compound)	metabolic stability compared to pagoclone and (S)-pagoclone (human liver S9 fractions, summary in words)
CC(C)CCC(=O)CC1c2ccccc2C(=O)N1c1ccc2ccc(Cl)nc2n1 [Pagoclone (S), 2-(7-chloro-1,8-naphthyridin-2-yl)-3-(5-methyl-2-oxohexyl)isoindolin-1-one, reference compound]	41 ± 1.0%	23 ± 3.9%					
CC(C)CCC(=O)CC1c2ccccc2C(=O)N1c1ccc2ccc(Cl)nc2n1 (racemic) [Pagoclone (racemic), 2-(7-chloro-1,8-naphthyridin-2-yl)-3-(5-methyl-2-oxohexyl)isoindolin-1-one, reference compound]	37 ± 3.8%	11 ± 1.2%					
[2H]C([2H])(C(=O)C([2H])([2H])C([2H])([2H])C([2H])(C([2H])([2H])[2H])C([2H])([2H])[2H])C1c2ccccc2C(=O)N1c1ccc2ccc(Cl)nc2n1 (racemic) [Rac-141, (+/−)-2-(7-Chloro-1,8-naphthyridin-2-yl)-3-(5-(d3-methyl)-2-oxo-1,1,3,3,4,4,5,6,6,6-d10-hexyl)isoindolin-1-one]	60 ± 8.4%	37 ± 2.7%	46%	62%	61%	236%	substantially greater metabolic stability

Reference: patent US20130338184A1, “2-AMINO-NAPHTHYRIDINE DERIVATIVES” (priority 2011, published 2013)
